Publication PMC4754833, “Rilpivirine analogs potently inhibit drug-resistant HIV-1 mutants” (Retrovirology, 2016)

Key:
[1] = system: HIV-1 RT mutant E138K/M184I; test: single round infection assay, E138K/M184I; type: cell-based; details: for fold-change of IC50 of the mutant relative to WT: E138K/M184I vs WT; for IC50: ± SD, n=4
Protocol: (§1) The human osteosarcoma cell line, HOS, was obtained from Dr. Richard Schwartz (Michigan State University, East Lansing, MI) and grown in Dulbecco’s modified Eagle’s medium (Invitrogen, Carlsbad, CA) supplemented with 5 % (v/v) fetal bovine serum, 5 % newborn calf serum, and penicillin (50 units/ml) plus streptomycin (50 µg/ml; Quality Biological, Gaithersburg, MD). Virion production and single-round infectivity assays were used to determine antiviral activity (IC50 values) of the compounds as previously described.
(§2) pNLNgoMIVR-ΔEnv.LUC has been described previously. The RT open reading frame was removed from pNLNgoMIVR-ΔEnv.LUC (digestion with SpeI and SalI) and inserted between the SpeI and SalI sites of pBluescript II KS+. Using that construct as the wild-type template, we prepared the following HIV-1 RT mutants using the QuikChange II XL (Stratagene, La Jolla, CA) site-directed mutagenesis protocol kit: L100I, K103N, Y181C, Y188L, H221Y, K103N/Y181C, G190A, G190S, M230L, P236L, L100I/K103N, K103N/P225H, V106A/G190A/F227L, V106A, L234I, V106A/F227L, V106A/L234I, V106A/F227L/L234I, E40K, D67E, K101E, V111A, E138K, M184I, M184V, K101E/M184I, K101E/M184V, E138K/M184I, E138K/M184V, K101P, Y181I, and K101P/V179I. The following sense oligonucleotides were used with matching cognate antisense oligonucleotides (not shown) (Integrated DNA Technologies, Coralville, IA) in the mutagenesis: L100I, 5′-[…]-3′; L100I 2-103, 5′-[…]-3′; K103N, 5′-[…]-3′; Y181C, 5′-[…]-3′; Y188L, 5′-[…]-3′; H221Y, 5′-[…]-3′; G190A, 5′-[…]-3′; G190S, 5′-[…]-3′; P225H, 5′-[…]-3′; F227, 5′-[…]-3′; M230L, 5′-[…]-3′; P236L, 5′-[…]-3′; V106A, 5′-[…]-3′; L234I, 5′-[…]-3′; E40K, 5′-[…]-3′; D67E, 5′-[…]-3′; K101E, 5′-[…]-3′; V111A, 5′-[…]-3′; E138K, 5′-[…]-3′; M184I, 5′-[…]-3′; M184V, 5′-[…]-3′; K101P, 5′-[…]-3′; Y181I, 5′-[…]-3′; K101P/V179I, 5′-[…]-3′. The double mutants K103N/Y181C, K103N/P225H, and L100I/K103N were made using the previously generated K103N mutant and the appropriate oligonucleotides to add the second mutation, Y181C, P225, and L100I respectively. The double mutants V106A/F227L and V106A/L234I were prepared using the previously generated V106A mutant and the appropriate oligonucleotides to add the second mutation, F227L and L234I, respectively. The double mutants K101E/M184I and K101E/M184V were constructed using the previously generated K101E mutant and the appropriate oligonucleotides to add the second mutation, M184I and M184V, respectively. The double mutants E138K/M184I and E138K/M184V were constructed using the previously generated E138K mutant and the appropriate oligonucleotides for the second mutation, M184I and M184V, respectively. The triple mutant V106A/F227L/L234I was made using the previously generated V106A/F227L double mutant and the appropriate oligonucleotides for the third mutation, L234I. The triple mutant V106A/G190A/F227L was constructed in a series of steps using the previously generated V106A mutant and the appropriate oligonucleotides for the second mutation, G190A, to generate the double mutant V106A/G190A, and then the triple mutant was made using double mutant V106A/G190A and oligonucleotides for the third mutation, F227L. The DNA sequence of each construct was verified by DNA sequence determination. The sequences encoding the mutant RTs were then subcloned into pNLNgoMIVR-ΔEnv.LUC (between the KpnI and SalI sites) to produce the mutant HIV-1 constructs. These DNA sequences were also checked independently by DNA sequence determination.
(§3) 10.1186/s12977-016-0244-2 The IC50 values (nM) of RPV and the RPV analogs were determined against the NNRTI resistant mutants were measured by using a single round infection assay, n = 4. The concentrations (nM) are measured by reductions in luciferase reporter activity followed by the standard deviations. […]

[2] = system: WT HIV-1; details: previous study; cited from earlier work
[3] = system: HIV-1 RT mutant V106A/F227L/L234I; test: single round infection assay, V106A/F227L/L234I; type: cell-based; details: for fold-change of IC50 of the mutant relative to WT: V106A/F227L/L234I vs WT; for IC50: ± SD, n=4
Protocol: as §1, §2, §3

[4] = system: HIV-1 RT mutant E138K; test: single round infection assay, E138K; type: cell-based; details: for fold-change of IC50 of the mutant relative to WT: E138K vs WT; for IC50: ± SD, n=4
Protocol: as §1, §2, §3

[5] = system: HIV-1 RT mutant E40K; test: single round infection assay, E40K; type: cell-based; details: for fold-change of IC50 of the mutant relative to WT: E40K vs WT; for IC50: Human immunodeficiency virus 1, E40K, ± SD, n=4
Protocol: as §1, §2, §3

[6] = system: HIV-1 RT mutant Y181C; set-up: method as in PMID 23217210; details: previous study; cited from earlier work
[7] = system: HIV-1 RT mutant P236L; test: single round infection assay, P236L; type: cell-based; details: for IC50: Human immunodeficiency virus 1; for fold-change of IC50 of the mutant relative to WT: P236L vs WT
Protocol: as §1, §2, §3

[8] = system: HIV-1 RT mutant Y181I; test: single round infection assay, Y181I; type: cell-based; details: for IC50: Human immunodeficiency virus 1; for fold-change of IC50 of the mutant relative to WT: Y181I vs WT
Protocol: as §1, §2, §3

[9] = system: HIV-1 RT mutant V106A; test: single round infection assay, V106A; type: cell-based; details: for fold-change of IC50 of the mutant relative to WT: V106A vs WT; for IC50: ± SD, n=4
Protocol: as §1, §2, §3

[10] = system: HIV-1 RT mutant K103N; set-up: method as in PMID 23217210; details: previous study; cited from earlier work
[11] = system: HIV-1 RT mutant K101E/M184I; test: single round infection assay, K101E/M184I; type: cell-based; details: for IC50: ± SD, n=4; for fold-change of IC50 of the mutant relative to WT: K101E/M184I vs WT
Protocol: as §1, §2, §3

[12] = system: HIV-1 RT mutant V106A/G190A/F227L; test: single round infection assay, V106A/G190A/F227L; type: cell-based; details: for IC50: Human immunodeficiency virus 1; for fold-change of IC50 of the mutant relative to WT: V106A/G190A/F227L vs WT
Protocol: as §1, §2, §3

[13] = system: HIV-1 RT mutant M230L; test: single round infection assay, M230L; type: cell-based; details: for IC50: ± SD, n=4, limit of detection 100 nM; for fold-change of IC50 of the mutant relative to WT: M230L vs WT
Protocol: as §1, §2, §3

[14] = Human immunodeficiency virus 1, E138K/M184I
[15] = Human immunodeficiency virus 1, E138K
[16] = Human immunodeficiency virus 1, K101E/M184I
[17] = Human immunodeficiency virus 1, M230L
[18] = Human immunodeficiency virus 1, V106A/F227L/L234I (selected by DOR)
[19] = V106A/F227L/L234I (selected by DOR)
[20] = Human immunodeficiency virus 1, V106A (selected by DOR)

Structure (SMILES) | fold-change of IC50 of the mutant relative to WT [1] | IC50 [1, 14] [nM] | IC50 [2] [nM] | fold-change of IC50 of the mutant relative to WT [3] | fold-change of IC50 of the mutant relative to WT [4] | IC50 [4, 15] [nM] | fold-change of IC50 of the mutant relative to WT [5] | IC50 [6] [nM] | IC50 [7] [nM] | IC50 [8] [nM] | fold-change of IC50 of the mutant relative to WT [9] | IC50 [10] [nM] | fold-change of IC50 of the mutant relative to WT [11] | IC50 [12] [nM] | fold-change of IC50 of the mutant relative to WT [12] | IC50 [13, 17] [nM] | fold-change of IC50 of the mutant relative to WT [13] | IC50 [3, 18] [nM] | IC50 [3, 19] [nM] | IC50 ([4]; E138K) [nM] | also measured
COc1ccc(Cn2cnc3c(Nc4ccc(C#N)cc4)nc(Nc4c(C)cc(/C=C/C#N)cc4C)nc32)cc1 [compound 12] | 4 | 2.4 ± 0.5 | < 7 | < 2 | 12 | 7.8 ± 0.64 | < 2 | < 7 | 0.8 ± 0.2 | > 100 | < 2 | < 7 | 4 | 5.9 ± 0.14 | 9 | 13.8 | 21 | – | – | – | IC50 [5]: 1 ± 0.04 nM; fold-change of IC50 of the mutant relative to WT [7]: < 2; IC50 [11, 16]: 2.7 ± 0.71 nM
Cc1cc(/C=C/C#N)cc(C)c1Nc1nc(Nc2ccc3scnc3c2)c2nc[nH]c2n1 [compound 21] | 2 | – | < 7 | 10 | 6 | < 2.5 | 2 | < 7 | 0.32 ± 0.09 | > 100 | 3 | < 7 | 2 | 3.8 ± 1.6 | 9 | < 6.1 | 15 | < 5 | 4.3 ± 0.8 | 2.4 ± 0.4 | IC50 ([13]; M230L): 6.1 ± 0.14 nM
Cc1cc(/C=C/C#N)cc(C)c1Nc1nc(Nc2ccc(F)cc2)c2nc[nH]c2n1 [compound 17] | 2 | 5.2 ± 1.1 | < 7 | 6 | 6 | 13.5 | 3 | < 7 | 1.2 | 78.9 | 2 | < 7 | 7 | 10.8 ± 2.5 | 5 | 21.1 | 10 | – | – | – | IC50 [5]: 6.4 nM; fold-change of IC50 of the mutant relative to WT [8]: 36; IC50 [9, 20]: < 5 nM; IC50 ([9]; V106A (selected by DOR)): 2.7 ± 0.64 nM; IC50 [11, 16]: 15 nM
COc1ccc(Nc2nc(Nc3c(C)cc(/C=C/C#N)cc3C)nc3[nH]cnc23)cc1 [compound 16] | 5 | – | < 7 | 18 | 11 | < 2.5 | < 2 | < 7 | 0.2 | 63.2 | 3 | < 7 | < 2 | 1.7 ± 0.2 | 10 | – | 15 | < 5 | 3 ± 0.8 | 1.9 ± 0.01 | fold-change of IC50 of the mutant relative to WT [7]: < 2; fold-change of IC50 of the mutant relative to WT [8]: 372
Cc1cc(/C=C/C#N)cc(C)c1Nc1ncc(N)c(Nc2ccc(C#N)cc2)n1 [compound 9] | 2 | < 6 | < 7 | 5 | 4 | < 6 | 2 | < 7 | 1.7 ± 0.7 | > 100 | < 2 | < 7 | 3 | 4.6 ± 0.3 | 4 | 29.6 | 23 | < 5 | 6.4 ± 1.8 | 5.6 ± 1.4 | IC50 ([1]; E138K/M184I): 3 ± 0.3 nM; fold-change of IC50 of the mutant relative to WT [7]: < 2; IC50 [9, 20]: < 5 nM; IC50 ([9]; V106A (selected by DOR)): 2.5 ± 1.2 nM; IC50 [11, 16]: < 6 nM; IC50 ([11]; K101E/M184I): 3.3 ± 0.85 nM
CC(=O)c1ccc(Nc2nc(Nc3c(C)cc(/C=C/C#N)cc3C)nc3[nH]cnc23)cc1 [compound 14] | 3 | – | < 7 | 7 | 6 | < 2.5 | < 2 | < 7 | 0.15 ± 0.05 | > 100 | 10 | < 7 | < 2 | 0.9 ± 0.18 | 2 | – | 7 | < 5 | 2.7 ± 0.64 | 2.6 ± 0.6 | IC50 [9, 20]: < 5 nM; IC50 ([9]; V106A (selected by DOR)): 4.3 ± 0.5 nM
